Laboratory results reported in patent US8835646B2, “Organic compounds” (Novartis AG, priority 2005, dated 2014).

Columns and labels:
human aromatase = target: T1, human aromatase (Homo sapiens, UniProt P11511); assay: human aromatase assay (Supersomes, DBF substrate, fluorescence); type: biochemical; settings: 10000 nM
T1 construct: purchased Gentest (Woburn, Mass.)
T1 sequence (P11511 1-503): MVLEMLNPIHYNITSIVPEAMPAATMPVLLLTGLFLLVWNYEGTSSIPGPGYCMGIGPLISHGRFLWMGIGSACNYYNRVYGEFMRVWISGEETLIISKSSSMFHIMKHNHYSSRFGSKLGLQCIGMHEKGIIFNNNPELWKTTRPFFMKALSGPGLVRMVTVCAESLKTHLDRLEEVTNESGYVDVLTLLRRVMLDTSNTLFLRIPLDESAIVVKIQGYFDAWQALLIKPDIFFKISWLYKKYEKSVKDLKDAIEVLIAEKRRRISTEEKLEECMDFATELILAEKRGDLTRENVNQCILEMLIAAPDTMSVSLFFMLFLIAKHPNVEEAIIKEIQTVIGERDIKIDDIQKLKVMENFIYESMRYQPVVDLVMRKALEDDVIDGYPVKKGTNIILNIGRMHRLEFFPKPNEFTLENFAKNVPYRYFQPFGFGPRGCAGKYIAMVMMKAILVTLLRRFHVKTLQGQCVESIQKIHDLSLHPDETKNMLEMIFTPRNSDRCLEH
Excerpt: (§1) Human adrenocortical carcinoma NCl-H295R cell line is obtained from American Type Culture Collection (Manassas, Va.). Insulin/transferrin/selenium (ITS)-A supplement (100×), DMEM/F-12, antibiotic/antimycotic (100×), and fetal calf serum (FCS) are purchased from Gibco (Grand Island, N.Y.). Anti-mouse PVT scintillation proximity assay (SPA) beads and NBS 96-well plates are obtained from Amersham (Piscataway, N.J.) and Corning (Acton, Mass.), respectively. Solid black 96-well flat bottom plates are purchased from Costar (Corning, N.Y.). Aldosterone and angiotensin (Ang II) are purchased from Sigma (St. Louis, Mo.). D-[1,2,6,7-^3H(N)]aldosterone was acquired from PerkinElmer (Boston, Mass.). Nu-serum was a product of BD Biosciences (Franklin Lakes, N.J.). The NADPH regenerating system, dibenzylfluorescein (DBF), and human aromatase Supersomes® are obtained from Gentest (Woburn, Mass.).
To measure aromatase activity, the human aromatase assay is performed in 96-well flat bottom plates according to a published protocol (Stresser et al, 2000) with minor modifications. Briefly, 10 μl of an NADPH regenerating system containing 2.6 mM NADP^+, 6.6 mM glucose 6-phosphate, 6.6 mM MgCl2, and 0.8 U/ml glucose-6-phosphate dehydrogenase in 50 mM potassium phosphate, pH 7.4, is pre-incubated with the test compound at a desired concentration at 30° C. for 10 min in a total volume of 100 μl. Afterwards, 4 pmol of human aromatase, 20 μg of control microsomal protein, and 4 μM DBF in 100 μl of 50 mM potassium phosphate, pH 7.4, is added to each well and incubated at 30° C. for 90 min. The reaction is terminated by the addition of 75 μl of 2 N NaOH to each well. After 2 hr, the product, fluorescein, is measured by a fluorimeter using excitation and emission wavelengths of 485 and 538 nm, respectively.
(§2) Full concentration-response curves of the test compound are performed at least 3 times. The IC50 values are derived using a non-linear least squares curve-fitting program from Microsoft XLfit.

aldosterone synthase = target: T2, aldosterone synthase (Homo sapiens, UniProt P19099); assay: cellular aldosterone production in NCI-H295R cells stimulated with Ang II (RIA/SPA); type: cell-based; settings: human adrenocortical carcinoma NCI-H295R cells, 1 μM Ang II, 24 hr
T2 construct: host or cells: NCI-H295R
T2 sequence (P19099 25-503): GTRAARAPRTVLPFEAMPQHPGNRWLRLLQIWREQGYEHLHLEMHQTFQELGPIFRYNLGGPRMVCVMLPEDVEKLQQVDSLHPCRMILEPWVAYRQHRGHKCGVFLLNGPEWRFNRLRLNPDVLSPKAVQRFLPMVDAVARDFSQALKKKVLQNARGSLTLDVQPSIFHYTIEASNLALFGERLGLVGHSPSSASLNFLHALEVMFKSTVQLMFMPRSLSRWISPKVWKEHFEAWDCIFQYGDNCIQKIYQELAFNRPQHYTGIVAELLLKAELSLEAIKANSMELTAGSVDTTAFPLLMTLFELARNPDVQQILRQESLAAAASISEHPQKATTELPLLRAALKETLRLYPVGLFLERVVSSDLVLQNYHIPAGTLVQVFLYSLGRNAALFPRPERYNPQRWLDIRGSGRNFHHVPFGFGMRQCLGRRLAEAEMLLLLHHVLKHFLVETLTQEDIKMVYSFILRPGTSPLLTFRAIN
Excerpt: as §1
For in vitro measurement of aldosterone activity, human adrenocortical carcinoma NCI-H295R cells are seeded in NBS 96-well plates at a density of 25,000 cells/well in 100 μl of a growth medium containing DMEM/F12 supplemented with 10% FCS, 2.5% Nu-serum, 1 μg ITS/ml, and 1× antibiotic/antimycotic. The medium is changed after culturing for 3 days at 37° C. under an atmosphere of 5% CO2/95% air. On the following day, cells are rinsed with 100 μl of DMEM/F12 and incubated with 100 μl of treatment medium containing 1 μM Ang II and a compound at different concentrations in quadruplicate wells at 37° C. for 24 hr. At the end of incubation, 50 μl of medium is withdrawn from each well for measurement of aldosterone production by an RIA using mouse anti-aldosterone monoclonal antibodies.
Measurement of aldosterone activity can also be performed using a 96-well plate format. Each test sample is incubated with 0.02 μCi of D-[1,2,6,7-^3H(N)]aldosterone and 0.3 μg of anti-aldosterone antibody in phosphate-buffered saline (PBS) containing 0.1% Triton X-100, 0.1% bovine serum albumin, and 12% glycerol in a total volume of 200 μl at room temperature for 1 hr. Anti-mouse PVT SPA beads (50 μl) are then added to each well and incubated overnight at room temperature prior to counting in a Microbeta plate counter. The amount of aldosterone in each sample is calculated by comparing with a standard curve generated using known quantities of the hormone.
as §2

Which inhibition at 10 µM (human aromatase) does the source give for `COc1cc(C2CCc3cncn32)ccc1C#N` (stereo not shown) [4-(6,7-Dihydro-5H-pyrrolo[1,2-c]imidazol-5-yl)-2-methoxybenzonitrile] here?
Its inhibition at 10 µM is 97%.

And the IC50 (aldosterone synthase)?
Its IC50 is 5 nM.

Which results are given for `N#Cc1ccc(C2(C(=O)N3CCCCC3)CCc3cncn32)c(Cl)c1` (stereo not shown) [3-Chloro-4-[5-(piperidine-1-carbonyl)-6,7-dihydro-5H-pyrrolo[1,2-c]imidazol-5-yl]benzonitrile]?
inhibition at 10 µM (human aromatase): 98%; IC50 (aldosterone synthase): 135 nM

How did the inhibition at 10 µM (human aromatase) turn out when `C=C1CC2(CCCCc3cncn32)c2ccc(C#N)cc21` (stereo not shown) [3′-Methylene-2′,3′,6,7,8,9-hexahydrospiro[imidazo[1,5-a]azepine-5,1′-indene]-5′-carbonitrile] was run?
Its inhibition at 10 µM is 100%.

What about the IC50 (aldosterone synthase) of the same compound?
The IC50 was 11 nM.

For `CCC1(c2ccc(C#N)cc2Cl)CCCCc2cncn21` (stereo not shown) [3-Chloro-(5-ethyl-6,7,8,9-tetrahydro-5H-imidazo[1,5-a]azepin-5-yl)benzonitrile], which inhibition at 10 µM (human aromatase) is on record?
The inhibition at 10 µM was 91%.

What about the IC50 (aldosterone synthase) of the same compound?
The IC50 was 217 nM.

`C=Cc1cc(C2CCc3cncn32)ccc1C#N` (stereo not shown) [4-(6,7-Dihydro-5H-pyrrolo[1,2-c]imidazol-5-yl)-2-vinylbenzonitrile] was tested. Which inhibition at 10 µM (human aromatase) did it give?
The inhibition at 10 µM was 100%.

And the IC50 (aldosterone synthase)?
Its IC50 is 8 nM.

What does the source list for `COc1cc(C#N)ccc1C1CCc2cncn21` (stereo not shown) [4-(6,7-Dihydro-5H-pyrrolo[1,2-c]imidazol-5-yl)-3-methoxybenzonitrile]?
inhibition at 10 µM (human aromatase): 100%; IC50 (aldosterone synthase): 18 nM

With `N#Cc1ccc(C2CCc3cncn32)c(N)c1` (stereo not shown) [3-Amino-4-(6,7-dihydro-5H-pyrrolo[1,2-c]imidazol-5-yl)benzonitrile] as the compound, how does the inhibition at 10 µM (human aromatase) read?
The inhibition at 10 µM was 100%.

What about the IC50 (aldosterone synthase) of the same compound?
The IC50 was 90 nM.

How did the inhibition at 10 µM (human aromatase) turn out when `COc1cc(C#N)ccc1C1(C(=O)N(C)Cc2ccc(F)cc2)CCc2cncn21` (stereo not shown) [5-(4-Cyano-2-methoxyphenyl)-6,7-dihydro-5H-pyrrolo[1,2-c]imidazole-5-carboxylic acid (4-fluorobenzyl)methylamide] was run?
The inhibition at 10 µM was 85%.

What about the IC50 (aldosterone synthase) of the same compound?
The IC50 was 57 nM.

`COc1cc(C#N)ccc1[C@@H]1C[C@@H](Cc2ccc(F)cc2)Cc2cncn21` (relative stereo) [trans-3-Methoxy-4-[7-(4-fluorobenzyl)-5,6,7,8-tetrahydroimidazo[1,5-a]pyridin-5-yl]benzonitrile] was tested. Which inhibition at 10 µM (human aromatase) did it give?
The inhibition at 10 µM was 100%.

And the IC50 (aldosterone synthase)?
Its IC50 is 83 nM.

How did the inhibition at 10 µM (human aromatase) turn out when `Cc1noc(C)c1-c1cc(C#N)ccc1C1CCCCc2cncn21` (stereo not shown) [3-(3,5-Dimethylisoxazol-4-yl)-4-(6,7,8,9-tetrahydro-5H-imidazo[1,5-a]azepin-5-yl)benzonitrile] was run?
The inhibition at 10 µM was 59%.

What about the IC50 (aldosterone synthase) of the same compound?
The IC50 was 40 nM.

What does the source list for `COC(=O)C1(c2ccc(C#N)cc2Cl)CCc2cncn21` (stereo not shown) [5-(2-Chloro-4-cyanophenyl)-6,7-dihydro-5H-pyrrolo[1,2-c]imidazole-5-carboxylic acid methyl ester]?
inhibition at 10 µM (human aromatase): 96%; IC50 (aldosterone synthase): 45 nM

What does the source list for `COc1cc(C#N)ccc1C1(C(=O)OCCOC(C)C)CCc2cncn21` (stereo not shown) [5-(4-Cyano-2-methoxyphenyl)-6,7-dihydro-5H-pyrrolo[1,2-c]imidazole-5-carboxylic acid 2-isopropoxyethyl ester]?
inhibition at 10 µM (human aromatase): 96%; IC50 (aldosterone synthase): 5 nM

Which results are given for `N#Cc1ccc(C2CC3(CC3)c3cncn32)c(F)c1` (stereo not shown) [5′-[2-fluoro-4-cyano-phenyl]-5′,6′-dihydrospiro[cyclopropane-1,7′-pyrrolo[1,2-c]imidazole]]?
inhibition at 10 µM (human aromatase): 99%; IC50 (aldosterone synthase): 11 nM

How did the inhibition at 10 µM (human aromatase) turn out when `N#Cc1ccc(C2CCCCc3cncn32)c(-c2cccnc2)c1` (stereo not shown) [3-Pyridin-3-yl-4-(6,7,8,9-tetrahydro-5H-imidazo[1,5-a]azepin-5-yl)benzonitrile] was run?
Its inhibition at 10 µM is 97%.

What about the IC50 (aldosterone synthase) of the same compound?
Its IC50 is 35 nM.

What does the source list for `Fc1ccc(C2CCCc3cncn32)c(-c2ccsc2)c1` (stereo not shown) [5-(4-Fluoro-2-thiophen-3-yl-phenyl)-5,6,7,8-tetrahydroimidazo[1,5-a]pyridine]?
inhibition at 10 µM (human aromatase): 88%; IC50 (aldosterone synthase): 93 nM

With `Cc1cc(C2CCc3cncn32)ccc1C#N` (stereo not shown) [4-(6,7-Dihydro-5H-pyrrolo[1,2-c]imidazol-5-yl)-2-methylbenzonitrile] as the compound, how does the inhibition at 10 µM (human aromatase) read?
Its inhibition at 10 µM is 95%.

And the IC50 (aldosterone synthase)?
Its IC50 is 3 nM.

`COC(=O)C1(c2cc(OC)c(C#N)cc2OC)CCc2cncn21` (stereo not shown) [5-(4-Cyano-2,5-dimethoxyphenyl)-6,7-dihydro-5H-pyrrolo[1,2-c]imidazole-5-carboxylic acid methyl ester] was tested. Which inhibition at 10 µM (human aromatase) did it give?
Its inhibition at 10 µM is 98%.

What about the IC50 (aldosterone synthase) of the same compound?
Its IC50 is 113 nM.
